What is called IC50 is the concentration at which inhibition is half-maximal.

Counter-ions that a name gives are not always drawn.

Results on 26 compounds are retold here after patent US20200361895A1, “NOVEL SULFONAMIDE CARBOXAMIDE COMPOUNDS” (Inflazome Limited, priority 2017, published 2020).

Chain of NLRP3 (Q96P20 whole entry): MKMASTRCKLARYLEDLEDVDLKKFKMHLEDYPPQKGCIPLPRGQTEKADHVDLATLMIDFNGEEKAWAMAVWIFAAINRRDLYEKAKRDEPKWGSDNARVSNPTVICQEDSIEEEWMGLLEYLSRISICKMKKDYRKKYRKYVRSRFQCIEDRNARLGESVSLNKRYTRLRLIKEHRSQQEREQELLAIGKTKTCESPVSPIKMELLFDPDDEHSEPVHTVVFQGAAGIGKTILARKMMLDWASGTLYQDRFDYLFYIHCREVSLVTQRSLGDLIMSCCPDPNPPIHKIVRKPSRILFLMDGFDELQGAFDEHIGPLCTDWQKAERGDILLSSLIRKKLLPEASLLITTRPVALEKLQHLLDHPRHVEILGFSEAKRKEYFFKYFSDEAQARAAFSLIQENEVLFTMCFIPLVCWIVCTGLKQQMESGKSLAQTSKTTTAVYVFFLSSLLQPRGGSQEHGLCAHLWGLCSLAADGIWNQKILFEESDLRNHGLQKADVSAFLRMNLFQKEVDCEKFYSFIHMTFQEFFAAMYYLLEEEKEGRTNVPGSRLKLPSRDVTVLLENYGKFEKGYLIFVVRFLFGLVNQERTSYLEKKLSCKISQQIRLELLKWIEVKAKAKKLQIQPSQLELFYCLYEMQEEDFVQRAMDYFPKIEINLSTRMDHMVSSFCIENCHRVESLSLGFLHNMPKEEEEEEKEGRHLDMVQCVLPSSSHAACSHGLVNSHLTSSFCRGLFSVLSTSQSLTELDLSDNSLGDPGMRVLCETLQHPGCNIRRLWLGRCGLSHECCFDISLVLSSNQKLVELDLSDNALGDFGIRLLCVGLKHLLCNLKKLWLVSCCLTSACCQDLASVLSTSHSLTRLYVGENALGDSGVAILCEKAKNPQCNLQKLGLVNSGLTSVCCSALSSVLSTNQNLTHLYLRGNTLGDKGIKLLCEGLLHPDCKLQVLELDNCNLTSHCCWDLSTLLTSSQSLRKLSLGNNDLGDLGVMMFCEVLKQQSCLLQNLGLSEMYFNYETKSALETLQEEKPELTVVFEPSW

The test concerns the target NLRP3 (Homo sapiens, UniProt Q96P20). The experiment in a line: THP-1 cells pyroptosis assay (LPS + nigericin, resazurin readout; THP IC50). Format: cell-based. More on the design: Seed THP-1 cells (25,000 cells/well) containing 1.0 μg/ml LPS in 40 μl of RPMI medium; host or cells: THP-1 cells. The procedure: THP-1 cells (ATCC #TIB-202) were grown in RPMI containing L-glutamine (Gibco #11835) supplemented with 1 mM sodium pyruvate (Sigma #S8636) and penicillin (100 units/ml)/streptomycin (0.1 mg/ml) (Sigma #P4333) in 10% Fetal Bovine Serum (FBS) (Sigma #F0804). The cells were routinely passaged and grown to confluency (˜10^6 cells/ml). On the day of the experiment, THP-1 cells were harvested and resuspended into RPMI medium (without FBS). The cells were then counted and viability (>90%) checked by Trypan blue (Sigma #T8154). Appropriate dilutions were made to give a concentration of 625,000 cells/ml. To this diluted cell solution was added LPS (Sigma #L4524) to give a 1 μg/ml Final Assay Concentration (FAC). 40 μl of the final preparation was aliquoted into each well of a 96-well plate. The plate thus prepared was used for compound screening.
The following method step-by-step assay was followed for compound screening. • 1. Seed THP-1 cells (25,000 cells/well) containing 1.0 μg/ml LPS in 40 μl of RPMI medium (without FBS) in 96-well, black walled, clear bottom cell culture plates coated with poly-D-lysine (VWR #734-0317) • 2. Add 5 μcompound (8 points half-log dilution, with 10 μM top dose) or vehicle (DMSO 0.1% FAC) to the appropriate wells • 3. Incubate for 3 hrs at 37° C. and 5% CO2 • 4. Add 5 μnigericin (Sigma #N7143) (FAC 5 μM) to all wells • 5. Incubate for 1 hr at 37° C. and 5% CO2 • 6. At the end of the incubation period, spin plates at 300×g for 3 mins and remove supernatant • 7. Then add 50 μl of resazurin (Sigma #R7017) (FAC 100 μM resazurin in RPMI medium without FBS) and incubate plates for a further 1-2 hrs at 37° C. and 5% CO2 • 8. Plates were read in an Envision reader at Ex 560 nm and Em 590 nm • 9. IC50 data is fitted to a non-linear regression equation (log inhibitor vs response-variable slope 4-parameters)
Turning to `CC(C)c1cc(F)cc(-c2cnn(C)c2)c1NC(=O)NS(=O)(=O)c1ccn(C(C)C)n1` [Example 2, N-((4-Fluoro-2-iso-propyl-6-(1-methyl-1H-pyrazol-4-yl)phenyl)carbamoyl)-1-iso-propyl-1H-pyrazole-3-sulfonamide], the IC50 is not above 5 µM.

In the case of `CC(C)c1cc(F)cc(-c2cncn2C)c1NC(=O)NS(=O)(=O)c1ccn(C(C)C)n1` [Example 3, N-((4-Fluoro-2-iso-propyl-6-(1-methyl-1H-imidazol-5-yl)phenyl)carbamoyl)-1-iso-propyl-1H-pyrazole-3-sulfonamide], the 50% inhibitory concentration (IC50) was not above 5 µM.

For `CC(C)c1cc(F)cc(-c2ccccc2)c1NC(=O)NS(=O)(=O)c1ccn(C(C)C)n1` [Example 4, N-((5-Fluoro-3-iso-propyl-[1,1′-biphenyl]-2-yl)carbamoyl)-1-iso-propyl-1H-pyrazole-3-sulfonamide], the IC50 is not above 5 µM.

With `CC(C)c1cc(F)cc(-c2ccnn2C)c1NC(=O)NS(=O)(=O)c1ccn(C(C)C)n1` [Example 5, N-((4-Fluoro-2-iso-propyl-6-(1-methyl-1H-pyrazol-5-yl)phenyl)carbamoyl)-1-iso-propyl-1H-pyrazole-3-sulfonamide], the IC50 was not above 5 µM.

`CC(C)c1cc(F)cc(-c2cncs2)c1NC(=O)NS(=O)(=O)c1ccn(C(C)C)n1` [Example 6, N-((4-Fluoro-2-iso-propyl-6-(thiazol-5-yl)phenyl)carbamoyl)-1-iso-propyl-1H-pyrazole-3-sulfonamide]: the IC50 was not above 5 µM.

On to `CC(C)c1cc(F)cc(-c2cnoc2)c1NC(=O)NS(=O)(=O)c1ccn(C(C)C)n1` [Example 7, N-((4-Fluoro-2-iso-propyl-6-(isoxazol-4-yl)phenyl)carbamoyl)-1-iso-propyl-1H-pyrazole-3-sulfonamide], for which the half-maximal inhibitory concentration (IC50) is not above 5 µM.

As to `CC(C)c1cc(F)cc(-c2cccc(C#N)c2)c1NC(=O)NS(=O)(=O)c1ccn(C(C)C)n1` [Example 8, N-((3′-Cyano-5-fluoro-3-iso-propyl-[1,1′-biphenyl]-2-yl)carbamoyl)-1-iso-propyl-1H-pyrazole-3-sulfonamide, sodium salt], the IC50 was not above 5 µM.

Consider `CC(C)c1cc(F)cc(-c2ccc(C#N)cc2)c1NC(=O)NS(=O)(=O)c1ccn(C(C)C)n1` [Example 9, N-((4′-Cyano-5-fluoro-3-iso-propyl-[1,1′-biphenyl]-2-yl)carbamoyl)-1-iso-propyl-1H-pyrazole-3-sulfonamide, sodium salt], for which the concentration for half-maximal inhibition (IC50) is not above 5 µM.

Turning to `Cc1cc(-c2cc(F)cc(C(C)C)c2NC(=O)NS(=O)(=O)c2ccn(C(C)C)n2)n(C)n1` [Example 11, N-((2-(1,3-Dimethyl-1H-pyrazol-5-yl)-4-fluoro-6-iso-propylphenyl)carbamoyl)-1-iso-propyl-1H-pyrazole-3-sulfonamide, partial ammonium salt], the IC50 was not above 0.5 µM.

With `Cc1cc(-c2cc(F)cc(C(C)C)c2NC(=O)NS(=O)(=O)c2ccn(C(C)C)n2)ccn1` [Example 13, N-((4-Fluoro-2-iso-propyl-6-(2-methylpyridin-4-yl)phenyl)carbamoyl)-1-iso-propyl-1H-pyrazole-3-sulfonamide, partial ammonium salt], the IC50 is not above 0.5 µM.

With `Cc1ncccc1-c1cc(F)cc(C(C)C)c1NC(=O)NS(=O)(=O)c1ccn(C(C)C)n1` [Example 14, N-((4-Fluoro-2-iso-propyl-6-(2-methylpyridin-3-yl)phenyl)carbamoyl)-1-iso-propyl-1H-pyrazole-3-sulfonamide, partial ammonium salt], the IC50 was not above 5 µM.

On to `Cc1ccc(-c2cc(F)cc(C(C)C)c2NC(=O)NS(=O)(=O)c2ccn(C(C)C)n2)cn1` [Example 15, N-((4-Fluoro-2-iso-propyl-6-(6-methylpyridin-3-yl)phenyl)carbamoyl)-1-iso-propyl-1H-pyrazole-3-sulfonamide, partial ammonium salt], for which the half-maximal inhibitory concentration (IC50) is not above 5 µM.

Turning to `CC(C)c1cc(F)cc(-c2cncc(Cl)c2)c1NC(=O)NS(=O)(=O)c1ccn(C(C)C)n1` [Example 16, N-((2-(5-Chloropyridin-3-yl)-4-fluoro-6-iso-propylphenyl)carbamoyl)-1-iso-propyl-1H-pyrazole-3-sulfonamide, partial ammonium salt], the IC50 is not above 5 µM.

As to `COc1cncc(-c2cc(F)cc(C(C)C)c2NC(=O)NS(=O)(=O)c2ccn(C(C)C)n2)c1` [Example 17, N-((4-Fluoro-2-iso-propyl-6-(5-methoxypyridin-3-yl)phenyl)carbamoyl)-1-iso-propyl-1H-pyrazole-3-sulfonamide, partial ammonium salt], the IC50 is not above 5 µM.

`CC(C)c1cc(F)cc(-c2cncnc2)c1NC(=O)NS(=O)(=O)c1ccn(C(C)C)n1` [Example 18, N-((4-Fluoro-2-iso-propyl-6-(pyrimidin-5-yl)phenyl)carbamoyl)-1-iso-propyl-1H-pyrazole-3-sulfonamide]: the IC50 is not above 1 µM.

Regarding `COc1ccc(-c2cc(F)cc(C(C)C)c2NC(=O)NS(=O)(=O)c2ccn(C(C)C)n2)cn1` [Example 19, N-((4-Fluoro-2-iso-propyl-6-(6-methoxypyridin-3-yl)phenyl)carbamoyl)-1-iso-propyl-1H-pyrazole-3-sulfonamide], the IC50 was not above 1 µM.

For `Cc1ccncc1-c1cc(F)cc(C(C)C)c1NC(=O)NS(=O)(=O)c1ccn(C(C)C)n1` [Example 20, N-((4-Fluoro-2-iso-propyl-6-(4-methylpyridin-3-yl)phenyl)carbamoyl)-1-iso-propyl-1H-pyrazole-3-sulfonamide, partial ammonium salt], the IC50 was not above 5 µM.

`CC(C)c1cc(F)cc(-c2cncc(F)c2)c1NC(=O)NS(=O)(=O)c1ccn(C(C)C)n1` [Example 21, N-((4-Fluoro-2-(5-fluoropyridin-3-yl)-6-isopropylphenyl)carbamoyl)-1-iso-propyl-1H-pyrazole-3-sulfonamide, partial ammonium salt]: the IC50 is not above 5 µM.

Consider `Cc1cnccc1-c1cc(F)cc(C(C)C)c1NC(=O)NS(=O)(=O)c1ccn(C(C)C)n1` [Example 22, N-((4-Fluoro-2-iso-propyl-6-(3-methylpyridin-4-yl)phenyl)carbamoyl)-1-iso-propyl-1H-pyrazole-3-sulfonamide], for which the concentration for half-maximal inhibition (IC50) is not above 1 µM.

For `COc1cc(-c2cc(F)cc(C(C)C)c2NC(=O)NS(=O)(=O)c2ccn(C(C)C)n2)cc(C)n1` [Example 26, N-((4-Fluoro-2-iso-propyl-6-(2-methoxy-6-methylpyridin-4-yl)phenyl)carbamoyl)-1-iso-propyl-1H-pyrazole-3-sulfonamide], the half-maximal inhibitory concentration (IC50) is not above 5 µM.

Turning to `CCc1cc(-c2cc(F)cc(C(C)C)c2NC(=O)NS(=O)(=O)c2ccn(C(C)C)n2)ccn1` [Example 29, N-((2-(2-Ethylpyridin-4-yl)-4-fluoro-6-iso-propylphenyl)carbamoyl)-1-iso-propyl-1H-pyrazole-3-sulfonamide], the IC50 is not above 5 µM.

Consider `CC(C)c1cc(F)cc(-c2cnn(C)c2)c1NC(=O)NS(=O)(=O)c1cn(C(C)C)cn1` [Example 31, N-((4-Fluoro-2-iso-propyl-6-(1-methyl-1H-pyrazol-4-yl)phenyl)carbamoyl)-1-iso-propyl-1H-imidazole-4-sulfonamide], for which the IC50 is not above 5 µM.

For `CC(C)c1cc(F)cc(-c2cncnc2)c1NC(=O)NS(=O)(=O)c1cc(CN(C)C)n(C)n1` [Example 42, 5-((Dimethylamino)methyl)-N-((4-fluoro-2-isopropyl-6-(pyrimidin-5-yl)phenyl)carbamoyl)-1-methyl-1H-pyrazole-3-sulfonamide], the half-maximal inhibitory concentration (IC50) was not above 5 µM.

In the case of `CC(C)c1cc(F)cc(-c2cncnc2)c1NC(=O)NS(=O)(=O)c1cc(CN(C)C)n(C(C)C)n1` [Example 43, 5-((Dimethylamino)methyl)-N-((4-fluoro-2-isopropyl-6-(pyrimidin-5-yl)phenyl)carbamoyl)-1-isopropyl-1H-pyrazole-3-sulfonamide], the IC50 is not above 5 µM.

On to `CC(C)c1cc(F)cc(-c2ccnc(C(F)(F)F)c2)c1NC(=O)NS(=O)(=O)c1ccn(C(C)C)n1` [Example 47, N-((4-Fluoro-2-isopropyl-6-(2-(trifluoromethyl)pyridin-4-yl)phenyl)carbamoyl)-1-isopropyl-1H-pyrazole-3-sulfonamide], for which the IC50 is not above 1 µM.

As to `CC(C)c1cc(F)cc(-c2ccnc(N(C)C)c2)c1NC(=O)NS(=O)(=O)c1ccn(C(C)C)n1` [Example 50, N-((2-(2-(Dimethylamino)pyridin-4-yl)-4-fluoro-6-isopropylphenyl)carbamoyl)-1-isopropyl-1H-pyrazole-3-sulfonamide], the half-inhibitory concentration (IC50) was not above 5 µM.
